Experimental findings from US9732087B2, “Diamino-pyridine, pyrimidine, and pyridazine modulators of the histamine H4 receptor” (JANSSEN PHARMACEUTICA NV, priority 2008, dated 2017) are described below.

Where two headings read alike, the source gives them in different places. Bounds are passed on as bounds.

The target in this test is human H4 receptor (Homo sapiens (Human), UniProt Q9H3N8). Briefly: Binding assay on recombinant human histamine H4 receptor ([3H]histamine competition, SK-N-MC cell membranes). As to conditions: [3H]histamine 10 nM, average of results. How it is done:
Binding Assay on Recombinant Human Histamine H4Receptor
Cell pellets from SK-N-MC cells stably or transiently transfected with human H4 receptor (NCBI accession No. AF312230) were used for the binding assays. Cell pellets were homogenized in 50 mM Tris/5 mM EDTA buffer and supernatants from an 800 g spin were collected and recentrifuged at 30,000 g for 30 min. Pellets were rehomogenized in 50 mM Tris/5 mM EDTA buffer. […] Membranes were harvested by rapid filtration using the 96 well Brandel system (Table 1, Brandel) or a cell harvester (Table 1, Cell Harvester) using a Whatman GF/C filter or filter plates treated with 0.5% polyethylenimine (PEI), and washed 4 times with ice-cold 50 mM Tris/5 mM EDTA buffer. Filters were then dried, mixed with scintillant and radioactive counts were determined. […] Where activity is shown as greater than (>) a particular value, the value is the highest concentration tested.

The mark [1] stands for this setting: membranes harvested with 96 well Brandel system, read-out: Brandel Ki.
Setting [2] is: membranes harvested with cell harvester, read-out: Cell Harvester Ki.

human H4 receptor, sequence (Q9H3N8 whole entry): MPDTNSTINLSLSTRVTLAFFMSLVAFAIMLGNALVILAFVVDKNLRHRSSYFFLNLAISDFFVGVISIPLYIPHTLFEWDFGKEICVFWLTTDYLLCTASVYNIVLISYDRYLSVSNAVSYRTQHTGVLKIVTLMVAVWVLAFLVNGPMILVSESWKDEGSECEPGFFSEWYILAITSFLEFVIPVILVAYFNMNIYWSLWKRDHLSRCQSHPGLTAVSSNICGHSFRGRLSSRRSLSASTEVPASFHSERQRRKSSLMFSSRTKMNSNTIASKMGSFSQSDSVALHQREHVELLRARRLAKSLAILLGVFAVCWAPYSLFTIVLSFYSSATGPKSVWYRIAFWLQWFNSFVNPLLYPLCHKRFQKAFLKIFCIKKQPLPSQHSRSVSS

Regarding `CN[C@@H]1CCN(c2cnnc(NC3CCCCC3)c2)C1` [Example 98, N-Cyclohexyl-5-[(3R)-3-(methylamino)pyrrolidin-1-yl]pyridazin-3-amine], the Ki (commonly the dissociation constant of the complex between target and ligand, obtained from inhibition or displacement) under setting [1] is 4.8 nM; the Ki under setting [2] came to 4.8 nM.
As for `CN[C@@H]1CCN(c2cnnc(NCC3CC3)c2)C1` [Example 99, N-(Cyclopropylmethyl)-5-[(3R)-3-(methylamino)pyrrolidin-1-yl]pyridazin-3-amine], the Ki came to 23.9 nM under setting [1] and 23.9 nM under setting [2].
For `CCCCNc1cc(N2CC[C@@H](NC)C2)cnn1` [Example 100, N-Butyl-5-[(3R)-3-(methylamino)pyrrolidin-1-yl]pyridazin-3-amine], the Ki was 31 nM under setting [1] and 31 nM under setting [2].
As for `CC(C)CNc1cc(N2CCN(C)CC2)cnn1` [Example 101, 5-(4-Methylpiperazin-1-yl)-N-(2-methylpropyl)pyridazin-3-amine], the Ki under setting [1] was greater than 10000 nM and the Ki under setting [2] was greater than 10000 nM.
On to `CNC1CN(c2ccnc(NCC3CCCCC3)n2)C1` [Example 102, N-(Cyclohexylmethyl)-4-[3-(methylamino)azetidin-1-yl]pyrimidin-2-amine], for which, under setting [2], the Ki came out at 45.9 nM.
With `C[C@@H](Nc1nccc(N2CC[C@@H](N)C2)n1)C1CCCCC1` [Example 103, 4-[(3R)-3-Aminopyrrolidin-1-yl]-N-[(1R)-1-cyclohexylethyl]pyrimidin-2-amine], the Ki under setting [2] amounted to 168 nM.
As to `CC1(C)[C@H]2CC[C@H](CNc3nccc(N4C[C@H]5CCN[C@H]5C4)n3)[C@@H]1C2` [Example 104, N-{[(1S,2S,5S)-6,6-Dimethylbicyclo[3.1.1]hept-2-yl]methyl}-4-[(3aR,6aR)-hexahydropyrrolo[3,4-b]pyrrol-5(1H)-yl]pyrimidin-2amine], the Ki under setting [2] was determined as 1050 nM.
Consider `CNC1CN(c2ccnc(NCC3CCC4CC3C4(C)C)n2)C1` (centres unmarked) [Example 105, N-[(6,6-Dimethylbicyclo[3.1.1]hept-2-yl)methyl]-4-[3-(methylamino)azetidin-1-yl]pyrimidin-2-amine], for which, under setting [2], the Ki stood at 165 nM.
Same read-out and setting: then `CC1(C)C2CCC(CNc3nccc(N4CC[C@@H](N)C4)n3)C1C2` (stereo partly drawn) [Example 106, 4-[(3R)-3-Aminopyrrolidin-1-yl]-N-[(6,6-dimethylbicyclo[3.1.1]hept-2-yl)methyl]pyrimidin-2-amine], with 194 nM; and `c1cc(N2C[C@H]3CCN[C@H]3C2)nc(NCC2CCCCC2)n1` [Example 107, N-(Cyclohexylmethyl)-4-[(3aR,6aR)-hexahydropyrrolo[3,4-b]pyrrol-5(1H)-yl]pyrimidin-2-amine], with 69.9 nM; and `CNC1CN(c2ccnc(NC3CCOCC3)n2)C1` [Example 108, 4-[3-(Methylamino)azetidin-1-yl]-N-(tetrahydro-2H-pyran-4-yl)pyrimidin-2-amine], with 141 nM.
Turning to `N[C@H]1CCN(c2ccnc(NCC3CC3)n2)C1` [Example 109, 4-[(3S)-3-Aminopyrrolidin-1-yl]-N-(cyclopropylmethyl)pyrimidin-1-amine], the Ki under setting [2] amounted to 64 nM.
As for `CC(C)(O)CNc1nccc(N2CC[C@H](N)C2)n1` [Example 110, 1-({4-[(3S)-3-Aminopyrrolidin-1-yl]pyrimidin-2-yl}amino)-2-methylpropan-2-ol], the Ki under setting [2] was found to be 837 nM.
The same measure, in the same setting: for `c1cc(N2CCNCC2)nc(NC2CC2)n1` [Example 112, N-Cyclopropyl-4-piperazin-1-ylpyrimidin-2-amine] the value was 236 nM.
Consider `CNC1CN(c2ccnc(N[C@H](C)C3CCCCC3)n2)C1` [Example 113, N-[(1R)-1-Cyclohexylethyl]-4-[3-(methylamino)azetidin-1-yl]pyrimidin-2-amine], for which the Ki under setting [2] is 139 nM.
As for `CN[C@@H]1CCN(c2ccnc(NCC(C)(C)O)n2)C1` [Example 114, 2-Methyl-1-({4-[(3R)-3-(methylamino)pyrrolidin-1-yl]pyrimidin-2-yl}amino)propan-2-ol], the Ki under setting [2] was found to be 45.4 nM.
